Measurements: patent US20090306133A1, “New Acetyl Coenzyme A Carboxylase (ACC) Inhibitors And Uses In Treatments Of Obesity And Diabetes Mellitus - 087” (ASTRAZENECA AB, priority 2007, published 2009)

Assays:
[1] = target: Human recombinant Acetyl-CoA Carboxylase 1 (ACC1) (Homo sapiens, UniProt Q13085); experiment: Assay Y: ACC1 inhibition, inorganic phosphate (Malachite Green); format: biochemical; conditions: Assay Y: room temperature, 3 hr, 15 min preincubation
Procedure: (§1) Preincubation of 6 μL enzyme together with 0.3 μL compound for 15 min was done before the reaction was initiated by the addition of 4 μL substrate. […] After 3 hr the reaction was stopped by addition of 60 μL of water followed by 30 μL Malachite Green solution. The Malachite Green solution was prepared by mixing 16.4 mL ammonium molybdate solution (7.5%), 1.64 mL Tween (11%) with 82 mL Malachite Green/H2SO4-solution (0.7 g Malachite Green to 1000 mL of 10% (v/v) H2SO4). Plates were left for 10 min at room temperature before reading the absorbance at 670 nm. All compounds were tested in triplicate at 10 different concentrations. Control compound (0, 50 and 100% effect) was included on each plate. […] An IC50 value was derived by non-linear regression curve fitting using the following equation: […]))) where A is the non-specific binding, B is the total binding, C is the IC50 and D is the slope. Saturation binding Kd and Bmax were derived using the equation y=((B1 max*x)/(Kd+x)).

[2] = target: Human recombinant Acetyl-CoA Carboxylase 2 (ACC2) (Homo sapiens, UniProt O00763); experiment: Assay Y: ACC2 inhibition, inorganic phosphate (Malachite Green); format: biochemical; conditions: Assay Y: room temperature, 3 hr, 15 min preincubation
Procedure: as §1

Chain of Human recombinant Acetyl-CoA Carboxylase 2 (ACC2) (O00763 whole entry): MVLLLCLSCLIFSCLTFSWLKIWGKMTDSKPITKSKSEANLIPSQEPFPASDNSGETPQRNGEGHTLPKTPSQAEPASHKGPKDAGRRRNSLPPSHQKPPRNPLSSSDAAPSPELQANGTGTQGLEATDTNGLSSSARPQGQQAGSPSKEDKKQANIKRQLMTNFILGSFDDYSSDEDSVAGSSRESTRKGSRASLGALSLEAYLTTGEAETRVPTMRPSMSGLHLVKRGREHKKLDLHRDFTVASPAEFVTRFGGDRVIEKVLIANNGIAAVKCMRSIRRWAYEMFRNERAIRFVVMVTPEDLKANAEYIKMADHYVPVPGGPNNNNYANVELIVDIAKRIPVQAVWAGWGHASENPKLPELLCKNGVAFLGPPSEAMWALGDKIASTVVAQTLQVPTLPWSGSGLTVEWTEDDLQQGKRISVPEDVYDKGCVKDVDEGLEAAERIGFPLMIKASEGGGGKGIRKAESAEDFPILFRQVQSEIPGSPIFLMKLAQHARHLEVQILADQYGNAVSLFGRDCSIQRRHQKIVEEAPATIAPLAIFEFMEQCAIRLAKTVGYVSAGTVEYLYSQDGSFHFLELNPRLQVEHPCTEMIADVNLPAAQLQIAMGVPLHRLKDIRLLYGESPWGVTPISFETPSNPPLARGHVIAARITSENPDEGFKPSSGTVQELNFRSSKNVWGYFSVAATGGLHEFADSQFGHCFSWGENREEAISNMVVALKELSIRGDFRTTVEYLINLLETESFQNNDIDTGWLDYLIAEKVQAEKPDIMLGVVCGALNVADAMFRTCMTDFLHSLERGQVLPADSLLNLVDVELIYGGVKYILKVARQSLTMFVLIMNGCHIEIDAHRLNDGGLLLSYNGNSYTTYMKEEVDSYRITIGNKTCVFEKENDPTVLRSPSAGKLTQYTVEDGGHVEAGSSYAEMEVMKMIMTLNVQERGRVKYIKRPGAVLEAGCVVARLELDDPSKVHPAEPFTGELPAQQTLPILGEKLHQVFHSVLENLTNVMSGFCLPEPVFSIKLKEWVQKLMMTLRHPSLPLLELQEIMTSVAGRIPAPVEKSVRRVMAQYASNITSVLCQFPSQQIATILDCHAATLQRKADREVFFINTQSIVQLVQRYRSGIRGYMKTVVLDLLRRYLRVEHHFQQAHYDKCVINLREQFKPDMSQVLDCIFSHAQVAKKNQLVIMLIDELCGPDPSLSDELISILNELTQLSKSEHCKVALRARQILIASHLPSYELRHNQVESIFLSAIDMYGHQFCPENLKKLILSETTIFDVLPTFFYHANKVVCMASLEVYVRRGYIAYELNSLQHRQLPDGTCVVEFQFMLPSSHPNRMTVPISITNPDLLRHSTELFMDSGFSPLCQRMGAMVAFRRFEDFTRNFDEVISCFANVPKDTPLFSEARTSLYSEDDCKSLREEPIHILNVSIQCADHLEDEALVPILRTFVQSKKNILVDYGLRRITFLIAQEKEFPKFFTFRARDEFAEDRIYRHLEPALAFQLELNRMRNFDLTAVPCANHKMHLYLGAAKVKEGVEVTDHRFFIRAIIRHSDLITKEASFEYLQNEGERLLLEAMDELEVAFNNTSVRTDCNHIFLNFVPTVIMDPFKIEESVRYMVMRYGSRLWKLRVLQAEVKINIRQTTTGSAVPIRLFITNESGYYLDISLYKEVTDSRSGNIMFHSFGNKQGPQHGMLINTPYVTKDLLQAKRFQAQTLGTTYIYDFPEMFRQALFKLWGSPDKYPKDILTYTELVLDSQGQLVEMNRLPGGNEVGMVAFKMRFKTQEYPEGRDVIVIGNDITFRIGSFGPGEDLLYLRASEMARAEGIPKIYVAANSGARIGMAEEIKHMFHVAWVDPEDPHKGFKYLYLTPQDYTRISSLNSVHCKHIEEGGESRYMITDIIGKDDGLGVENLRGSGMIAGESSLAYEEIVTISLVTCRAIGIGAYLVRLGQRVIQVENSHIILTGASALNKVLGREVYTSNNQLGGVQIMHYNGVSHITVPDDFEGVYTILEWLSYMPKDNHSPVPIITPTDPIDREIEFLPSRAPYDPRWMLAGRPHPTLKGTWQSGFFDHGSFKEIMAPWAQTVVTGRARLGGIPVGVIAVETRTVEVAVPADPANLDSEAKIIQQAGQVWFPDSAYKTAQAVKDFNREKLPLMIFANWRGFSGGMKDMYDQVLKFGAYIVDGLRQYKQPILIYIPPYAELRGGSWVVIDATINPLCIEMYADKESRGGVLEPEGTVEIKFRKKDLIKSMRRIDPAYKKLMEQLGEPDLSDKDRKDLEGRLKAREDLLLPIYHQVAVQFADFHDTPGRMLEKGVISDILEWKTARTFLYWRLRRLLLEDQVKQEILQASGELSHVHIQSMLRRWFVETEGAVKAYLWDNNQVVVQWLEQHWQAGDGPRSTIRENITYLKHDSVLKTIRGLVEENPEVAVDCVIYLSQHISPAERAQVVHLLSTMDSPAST

SMILES | IC50 [1] [nM] | IC50 [2] [nM]
CN1CCN(c2ccc(-c3cc(C(=O)NC[C@H]4CC[C@H](CNC(=O)OCC5CCO5)CC4)c4ccccc4n3)cn2)CC1 (relative stereo) [Example 111, Oxetan-2-ylmethyl-[(trans-4-{[({2-[6-(4-methylpiperazin-1-yl)pyridin-3-yl]quinolin-4-yl}carbonyl)amino]methyl}cyclohexyl)methyl]carbamate] | 3180 | 710
CN1CCN(c2ccc(-c3cc(C(=O)NC[C@H]4CC[C@H](CNC(=O)OC5CCOC5)CC4)c4ccccc4n3)cn2)CC1 (relative stereo) [Example 114, Tetrahydrofuran-3-yl-[(trans-4-{[({2-[6-(4-methylpiperazin-1-yl)pyridin-3-yl]quinolin-4-yl}carbonyl)amino]methyl}cyclohexyl)methyl]carbamate] | 2380 | 330
COC[C@H](C)OC(=O)NC[C@H]1CC[C@H](CNC(=O)c2cc(-c3ccc(N4CCN(C)CC4)nc3)nc3ccccc23)CC1 (stereo in doubt) [Example 112, (1S)-2-Methoxy-1-methylethyl[(trans-4-{[({2-[6-(4-methylpiperazin-1-yl)pyridin-3-yl]quinolin-4-yl}carbonyl)amino]methyl}cyclohexyl)methyl]carbamate] | 2710 | 380
COC[C@@H](C)OC(=O)NC[C@H]1CC[C@H](CNC(=O)c2cc(-c3ccc(N4CCN(C)CC4)nc3)nc3ccccc23)CC1 (stereo in doubt) [Example 113, (1R)-2-Methoxy-1-methylethyl[(trans-4-{[({2-[6-(4-methylpiperazin-1-yl)pyridin-3-yl]quinolin-4-yl}carbonyl)amino]methyl}cyclohexyl)methyl]carbamate] | 7800 | 940
CN1CCN(c2ccc(-c3cc(C(=O)NC[C@H]4CC[C@H](CNC(=O)OC(C)(C)C)CC4)c4ccccc4n3)cn2)CC1 [Example 1, tert-butyl [(trans-4-{[({2-[6-(4-methylpiperazin-1-yl)pyridin-3-yl]quinolin-4-yl}carbonyl)amino]methyl}cyclohexyl)methyl]carbamate] | 200 | 50
Cc1[nH]c(=O)ccc1-c1cc(C(=O)NC[C@H]2CC[C@H](CNC(=O)OC(C)(C)C)CC2)c2ccccc2n1 [Example 2, tert-Butyl ({trans-4-[({[2-(2-methyl-6-oxo-1,6-dihydropyridin-3-yl)quinolin-4-yl]carbonyl}amino)methyl]cyclohexyl}methyl)carbamate] | > 20000 | 2960
CC(C)(C)OC(=O)NC[C@H]1CC[C@H](CNC(=O)c2cc(-c3cnccn3)nc3ccccc23)CC1 [Example 3, tert-Butyl {[trans-4-({[(2-pyrazin-2-ylquinolin-4-yl)carbonyl]amino}methyl)cyclohexyl]methyl}carbamate] | 1520 | 650
CCOc1ccc(-c2cc(C(=O)NC[C@H]3CC[C@H](CNC(=O)OC(C)(C)C)CC3)c3ccccc3n2)cc1 [Example 4, tert-Butyl ({trans-4-[({[2-(4-ethoxyphenyl)quinolin-4-yl]carbonyl}amino)methyl]-cyclohexyl}methyl)carbamate] | 1330 | 390
CC(C)(C)OC(=O)NC[C@H]1CC[C@H](CNC(=O)c2cc(-c3ccc(C(N)=O)nc3)nc3ccccc23)CC1 [Example 5, tert-Butyl ({trans-4-[({[2-(6-carbamoylpyridin-3-yl)quinolin-4-yl]carbonyl}amino)-methyl]cyclohexyl}methyl)carbamate] | 1220 | 260
CC(C)(C)OC(=O)NC[C@H]1CC[C@H](CNC(=O)c2cc(-c3ccccc3)nc3ccccc23)CC1 [Example 6, tert-butyl {[trans-4-({[(2-phenylquinolin-4-yl)carbonyl]amino}methyl)cyclohexyl]methyl}carbamate] | 560 | 240
CC(C)(C)OC(=O)NC[C@H]1CC[C@H](CNC(=O)c2cc(-c3ccncc3)nc3ccccc23)CC1 [Example 7, tert-butyl {[trans-4-({[(2-pyridin-4-ylquinolin-4-yl)carbonyl]amino}methyl)cyclohexyl]methyl}-carbamate] | 1030 | 210
CC(C)(C)OC(=O)NC[C@H]1CC[C@H](CNC(=O)c2cc(-c3cccc(C(N)=O)c3)nc3ccccc23)CC1 [Example 8, tert-Butyl ({trans-4-[({[2-(3-carbamoylphenyl)quinolin-4-yl]carbonyl}amino)methyl]-cyclohexyl}methyl)carbamate] | 310 | 80
CC(C)(C)OC(=O)NC[C@H]1CC[C@H](CNC(=O)c2cc(-c3ccc(C(N)=O)cc3)nc3ccccc23)CC1 [Example 9, tert-butyl ({trans-4-[({[2-(4-carbamoylphenyl)quinolin-4-yl]carbonyl}amino)methyl]cyclohexyl}methyl)carbamate] | 250 | 40
CN(C)CCCOc1ccc(-c2cc(C(=O)NC[C@H]3CC[C@H](CNC(=O)OC(C)(C)C)CC3)c3ccccc3n2)cn1 [Example 10, tert-Butyl {[trans-4-({[(2-{6-[3-(dimethylamino)propoxy]pyridin-3-yl}quinolin-4-yl)carbonyl]amino}methyl)cyclohexyl]methyl}carbamate] | 300 | 40
CN(C)c1ccc(-c2cc(C(=O)NC[C@H]3CC[C@H](CNC(=O)OC(C)(C)C)CC3)c3ccccc3n2)cn1 [Example 11, tert-Butyl [(trans-4-{[({2-[6-(dimethylamino)pyridin-3-yl]quinolin-4-yl}carbonyl)-amino]methyl}cyclohexyl)methyl]carbamate] | 1220 | 100
CC(C)(C)OC(=O)NC[C@H]1CC[C@H](CNC(=O)c2cc(-c3ccc(C(F)(F)F)cc3)nc3ccccc23)CC1 [Example 12, tert-Butyl [(trans-4-{[({2-[4-(trifluoromethyl)phenyl]quinolin-4-yl}carbonyl)amino]-methyl}cyclohexyl)methyl]carbamate] | > 20000 | 560
CC(=O)c1ccc(-c2cc(C(=O)NC[C@H]3CC[C@H](CNC(=O)OC(C)(C)C)CC3)c3ccccc3n2)s1 [Example 13, tert-Butyl ({trans-4-[({[2-(5-acetyl-2-thienyl)quinolin-4-yl]carbonyl}amino)methyl]-cyclohexyl}methyl)carbamate] | 450 | 160
CC(C)(C)OC(=O)NC[C@H]1CC[C@H](CNC(=O)c2cc(-c3ccc(F)cc3)nc3ccccc23)CC1 [Example 14, tert-Butyl ({trans-4-[({[2-(4-fluorophenyl)quinolin-4-yl]carbonyl}amino)methyl]-cyclohexyl}methyl)carbamate] | 690 | 180
Cc1noc(C)c1-c1cc(C(=O)NC[C@H]2CC[C@H](CNC(=O)OC(C)(C)C)CC2)c2ccccc2n1 [Example 15, tert-Butyl ({trans-4-[({[2-(3,5-dimethylisoxazol-4-yl)quinolin-4-yl]carbonyl}amino)-methyl]cyclohexyl}methyl)carbamate] | > 20000 | 2870
CC(C)(C)OC(=O)NC[C@H]1CC[C@H](CNC(=O)c2cc(-c3cccnc3)nc3ccccc23)CC1 [Example 16, tert-Butyl {[trans-4-({[(2-pyridin-3-ylquinolin-4-yl)carbonyl]amino}methyl)cyclo-hexyl]methyl}carbamate] | 2030 | 320
CCOC(=O)NC[C@H]1CC[C@H](CNC(=O)c2cc(-c3ccc(F)cc3)nc3ccccc23)CC1 [Example 17, Ethyl ({trans-4-[({[2-(4-fluorophenyl)quinolin-4-yl]carbonyl}amino)methyl]cyclo-hexyl}methyl)carbamate] | > 20000 | 1940
CCOC(=O)NC[C@H]1CC[C@H](CNC(=O)c2cc(-c3ccc(C(=O)N(C)C)cc3)nc3ccccc23)CC1 [Example 18, Ethyl [(trans-4-{[({2-[4-(dimethylcarbamoyl)phenyl]quinolin-4-yl}carbonyl)amino]-methyl}cyclohexyl)methyl]carbamate] | 4850 | 1800
CCOC(=O)NC[C@H]1CC[C@H](CNC(=O)c2cc(-c3cccc(C(N)=O)c3)nc3ccccc23)CC1 [Example 19, Ethyl ({trans-4-[({[2-(3-carbamoylphenyl)quinolin-4-yl]carbonyl}amino)methyl]-cyclohexyl}methyl)carbamate] | 1210 | 780
Cc1ccc(-c2cc(C(=O)NC[C@H]3CC[C@H](CNC(=O)OC(C)(C)C)CC3)c3ccccc3n2)cc1 [Example 20, tert-Butyl ({trans-4-[({[2-(4-methylphenyl)quinolin-4-yl]carbonyl}amino)methyl]-cyclohexyl}methyl)carbamate] | 1290 | 620
CC(C)(C)OC(=O)NC[C@H]1CC[C@H](CNC(=O)c2cc(-c3ccc(Cl)cc3)nc3ccccc23)CC1 [Example 21, tert-Butyl ({trans-4-[({[2-(4-chlorophenyl)quinolin-4-yl]carbonyl}amino)methyl]cyclo-hexyl}methyl)carbamate] | 1490 | 970
CC(C)(C)OC(=O)NC[C@H]1CC[C@H](CNS(=O)(=O)c2ccc3c(c2)OCCO3)CC1 [Example 69, tert-Butyl [(trans-4-{[(2,3-dihydro-1,4-benzodioxin-6-ylsulfonyl)amino]methyl}cyclo-hexyl)methyl]carbamate] | – | 4760
